Test systems include KM12 colon; SNB-75 CNS; PC-3 prostate; DU-145 prostate; M14 melanoma; NCI-H460 lung; NCI-H23 lung; RPMI-8226 leukemia; HCT-116 colon; SK-OV-3 ovarian; MALME-3M melanoma.
What all share (experiment): NCI anticancer screen, dose series, 48 h

The structures appear in SMILES notation.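 Cells were grown in 96-well plates and exposed to each compound for 48 hours at five concentrations; endpoints were interpolated linearly between bracketing concentrations, or set to the highest concentration if not reached. GI50 is the concentration that inhibits growth by half. TGI: total growth inhibition.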 Bounds are passed on as bounds.

Consider `O=C(O)CN1CCN(CC(=O)O)CCN(CC(=O)O)CCN(CC(=O)O)CC1`, for which the TGI in the test with KM12 colon, in the test with SNB-75 CNS, in the test with PC-3 prostate, with DU-145 prostate, in the test with M14 melanoma and with NCI-H460 lung was more than 100 µM throughout. Moreover, the TGI in the test with NCI-H23 lung, in the test on RPMI-8226 leukemia and in the test on HCT-116 colon was more than 100 µM throughout.

Regarding `N#CS/C(Cl)=C(/C(Cl)=C(Cl)Cl)[N+](=O)[O-]`, the TGI with KM12 colon, with SNB-75 CNS, with PC-3 prostate, in the test with SK-OV-3 ovarian, in the test on DU-145 prostate and in the test with M14 melanoma was more than 100 µM in each case. For the same compound, the TGI with NCI-H460 lung was more than 100 µM; in the test with NCI-H23 lung, more than 100 µM; in the test on MALME-3M melanoma, 47.1 µM; in the test with HCT-116 colon, 75.7 µM.

For the compound `Cc1cc2oc(=O)[nH]c(=S)c2c(C)c1C`, the TGI in the test on KM12 colon, in the test with SNB-75 CNS, in the test on SK-OV-3 ovarian, with M14 melanoma, in the test with NCI-H460 lung and with NCI-H23 lung was more than 100 µM each time. The TGI in the test with MALME-3M melanoma, with RPMI-8226 leukemia and with HCT-116 colon was more than 100 µM throughout.

As for `CC(=O)c1ccc2c(c1)oc(=O)n2CCN1CCCCC1`, the TGI in the test with KM12 colon, with PC-3 prostate, with SK-OV-3 ovarian, in the test on DU-145 prostate, in the test with M14 melanoma and in the test on NCI-H460 lung was more than 100 µM in each case. The TGI in the test with NCI-H23 lung, in the test with MALME-3M melanoma, with RPMI-8226 leukemia and in the test on HCT-116 colon was more than 100 µM in each case.

In the case of `CCOC(=O)CC[C@@H](NC(=O)c1ccc(N[C@@H]2c3cc4c(cc3C(c3cc(OC)c(O)c(OC)c3)C3C(=O)OC[C@@H]32)OCO4)cc1)C(=O)OCC` (some centres undefined), the TGI in the test on SK-OV-3 ovarian was 0.0656 µM; in the test on M14 melanoma, more than 10 µM; in the test with NCI-H460 lung, 0.0174 µM; in the test on NCI-H23 lung, 0.0424 µM; in the test on MALME-3M melanoma it was 0.236 µM; in the test on RPMI-8226 leukemia it was more than 10 µM.

Take `CCCCCCCCCCCCCCCCP(=O)(O)OP(=O)(O)OCC1OC(n2cnc3c(N)ncnc32)C(O)C1O` (centres undefined): the TGI is 53.8 µM with KM12 colon; 45.3 µM with SNB-75 CNS; 52.9 µM with PC-3 prostate; more than 100 µM in the test on SK-OV-3 ovarian; more than 100 µM in the test on DU-145 prostate; 56.7 µM in the test on M14 melanoma. Further, the TGI in the test on NCI-H460 lung came to 58.4 µM; in the test with NCI-H23 lung, 68.2 µM; in the test with MALME-3M melanoma, 44.8 µM; with HCT-116 colon, 47.3 µM.

Regarding `CCCNC(=S)/N=C\c1c(O)c2ccccc2oc1=O`, the TGI in the test with KM12 colon, in the test on SNB-75 CNS, in the test on PC-3 prostate, in the test on SK-OV-3 ovarian, with DU-145 prostate and with M14 melanoma was more than 100 µM each time. Besides, the TGI in the test on NCI-H460 lung, with NCI-H23 lung, with MALME-3M melanoma and in the test with HCT-116 colon was more than 100 µM each time.

In the case of `COc1ccc(C2C(Cl)C(=O)N2NC(=O)Cc2ccccc2)cc1` (centres undefined), the TGI in the test on KM12 colon, in the test with SNB-75 CNS, in the test with SK-OV-3 ovarian, with M14 melanoma, with NCI-H460 lung and with NCI-H23 lung was more than 100 µM each time. In addition, the TGI with MALME-3M melanoma, in the test with RPMI-8226 leukemia and in the test with HCT-116 colon was more than 100 µM in each case.

`c1ccc2sc(C3(N4CCCCC4)CCCC3)cc2c1`: the TGI in the test on KM12 colon is 23.4 µM; with SNB-75 CNS it was 30.6 µM; in the test on SK-OV-3 ovarian, 31.4 µM; in the test on DU-145 prostate it was 24 µM; in the test on M14 melanoma, 33.1 µM; in the test with NCI-H460 lung it was 20.7 µM. Further, the TGI amounted to 17.6 µM in the test on NCI-H23 lung, 29.1 µM with MALME-3M melanoma, 10.4 µM in the test with RPMI-8226 leukemia and 19.9 µM with HCT-116 colon.

On to `COC(=O)CC1C(=O)OCc2c1cc1n(c2=O)Cc2c-1nc1ccccc1c2OC` (centres undefined), for which the TGI in the test on SNB-75 CNS is more than 100 µM; in the test with SK-OV-3 ovarian, more than 100 µM; with M14 melanoma it was more than 100 µM; in the test on NCI-H460 lung, more than 100 µM; with NCI-H23 lung, 97.9 µM; in the test with MALME-3M melanoma, more than 100 µM. In addition, the TGI with RPMI-8226 leukemia and in the test with HCT-116 colon was more than 100 µM throughout.

As to `C=C[C@H]1CN2CCc3c([nH]c4c([C@H]5CCCN5C)c(O)ccc34)[C@@H]2C[C@@H]1C[C@H]1c2[nH]c3ccccc3c2CCN1C`, the TGI in the test on KM12 colon is 2.82 µM; in the test with SNB-75 CNS it was 2.4 µM; with PC-3 prostate it was 3.11 µM; with SK-OV-3 ovarian, 3.31 µM; with DU-145 prostate it was 3 µM; in the test with M14 melanoma it was 2.89 µM. Besides, the TGI in the test with NCI-H460 lung was 3.53 µM; in the test with NCI-H23 lung, 3.56 µM; in the test with MALME-3M melanoma, 3.19 µM; in the test on HCT-116 colon, 2.61 µM. The GI50 in the test on NCI-H460 lung is 1.74 µM.

For `O=C1CCC2SC1CCC2=O`, the TGI with KM12 colon, in the test with SNB-75 CNS, in the test on PC-3 prostate, in the test on SK-OV-3 ovarian, in the test with DU-145 prostate and with M14 melanoma was more than 100 µM each time. Moreover, the TGI in the test with NCI-H460 lung, in the test with NCI-H23 lung, in the test on MALME-3M melanoma and in the test on HCT-116 colon was more than 100 µM throughout.

On to `COc1cc2[nH]c(-c3cccc(N(C)C)c3)cc(=O)c2cc1OC`, for which the TGI was more than 60.1 µM with KM12 colon; more than 100 µM in the test on SK-OV-3 ovarian; more than 100 µM with M14 melanoma; more than 100 µM with NCI-H460 lung; more than 100 µM in the test on NCI-H23 lung; more than 100 µM in the test on MALME-3M melanoma. For the same compound, the TGI with RPMI-8226 leukemia and with HCT-116 colon was more than 100 µM throughout.

As to `CCN(CC)Cc1cc(Nc2c3ccccc3nc3c2[nH]c2ccccc23)ccc1O`, the TGI in the test with KM12 colon was 4.66 µM; in the test with SNB-75 CNS, 3.35 µM; in the test on SK-OV-3 ovarian, 6.83 µM; with M14 melanoma, 3.11 µM; in the test with NCI-H460 lung it was 2.71 µM; with NCI-H23 lung it was 2.8 µM. Also, the TGI in the test with MALME-3M melanoma came to 3.31 µM; in the test on RPMI-8226 leukemia, 5.83 µM; in the test with HCT-116 colon it was 1.91 µM.

The record behind these values is PubChem BioAssay (NCI).
